In patent publication US4684664A, “Derivatives of β-(4-isocyano-1,2,3,4-diepoxycyclopentyl) acrylic acid” (Kureha Kagaku Kogyo Kabushiki Kaisha, priority 1984, dated 1987):
Converted amounts (≈) assume the structure as drawn.

Key:
Format in all cases: cell-based
[1] = test system: Staphylococcus aureus FDA 209PJc-1; assay: Antibacterial activity, agar-dilution MIC, organism No. 1; settings: Staphylococcus aureus, FDA209PJC1; Organism No. 1, bouillon-agar; read-out: Minimum Inhibitory Concentration
Outline: (§1)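 Bouillon-agar culture medium served for the agar-dilution test; inhibitory endpoint expressed per ml of medium in μg.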

[2] = test system: Staphylococcus aureus Terajima; assay: Antibacterial activity, agar-dilution MIC, organism No. 2; settings: Staphylococcus aureus; Organism No. 2, bouillon-agar; read-out: Minimum Inhibitory Concentration
Outline: as §1

[3] = test system: Staphylococcus aureus MS 353; assay: Antibacterial activity, agar-dilution MIC, organism No. 3; settings: Staphylococcus aureus, MS353; Organism No. 3, bouillon-agar; read-out: Minimum Inhibitory Concentration
Outline: as §1

[4] = test system: Streptococcus pyogenes Cook; assay: Antibacterial activity, agar-dilution MIC, organism No. 4; settings: Streptococcus pyogenes; Organism No. 4, bouillon-agar; read-out: Minimum Inhibitory Concentration
Outline: as §1

[5] = test system: Escherichia coli NIHJ-JC-2; assay: Antibacterial activity, agar-dilution MIC, organism No. 5; settings: Escherichia coli, NIHJJC2; Organism No. 5, bouillon-agar; read-out: Minimum Inhibitory Concentration
Outline: as §1

[6] = test system: Escherichia coli K12 C600 IAM 1264; assay: Antibacterial activity, agar-dilution MIC, organism No. 6; settings: Escherichia coli, IAM1264; Organism No. 6, bouillon-agar; read-out: Minimum Inhibitory Concentration
Outline: as §1

[7] = test system: Klebsiella pneumoniae PCI-602; assay: Antibacterial activity, agar-dilution MIC, organism No. 7; settings: Klebsiella pneumoniae, PCI602; Organism No. 7, bouillon-agar; read-out: Minimum Inhibitory Concentration
Outline: as §1

[8] = test system: Salmonella typhimurium IID 971; assay: Antibacterial activity, agar-dilution MIC, organism No. 8; settings: Salmonella enterica; Organism No. 8, bouillon-agar; read-out: Minimum Inhibitory Concentration
Outline: as §1

Salmonella typhi 901 = assay: Antibacterial activity, agar-dilution MIC, organism No. 9; settings: Salmonella enterica, TYPHI, read-out: Minimum Inhibitory Concentration
Outline: as §1

[9] = test system: Salmonella paratyphi-A 1015; assay: Antibacterial activity, agar-dilution MIC, organism No. 10; settings: Salmonella enterica, PARATYPHI, read-out: Minimum Inhibitory Concentration
Outline: as §1

[10] = test system: Salmonella shottmuelleri 8006; assay: Antibacterial activity, agar-dilution MIC, organism No. 11; settings: Salmonella, 8006; Organism No. 11, bouillon-agar; read-out: Minimum Inhibitory Concentration
Outline: as §1

[11] = test system: Salmonella enteritidis G 14; assay: Antibacterial activity, agar-dilution MIC, organism No. 12; settings: Salmonella enterica, ENTERITIDIS; Organism No. 12, bouillon-agar; read-out: Minimum Inhibitory Concentration
Outline: as §1

[12] = test system: Serratia marcescens IAM 1184; assay: Antibacterial activity, agar-dilution MIC, organism No. 13; settings: Serratia marcescens, IAM1184; Organism No. 13, bouillon-agar; read-out: Minimum Inhibitory Concentration
Outline: as §1

[13] = test system: Bacillus subtilis ATCC 6633; assay: Antibacterial activity, agar-dilution MIC, organism No. 14; settings: Bacillus subtilis, ATCC6633; Organism No. 14, bouillon-agar; read-out: Minimum Inhibitory Concentration
Outline: as §1

[14] = test system: Pseudomonas aeruginosa IFO 3445; assay: Antibacterial activity, agar-dilution MIC, organism No. 15; settings: Pseudomonas aeruginosa, IFO3445; Organism No. 15, bouillon-agar; read-out: Minimum Inhibitory Concentration
Outline: as §1

[15] = test system: Pseudomonas aeruginosa NCTC 10490; assay: Antibacterial activity, agar-dilution MIC, organism No. 16; settings: Pseudomonas aeruginosa, NCTC10490; Organism No. 16, bouillon-agar; read-out: Minimum Inhibitory Concentration
Outline: as §1

[16] = test system: Pseudomonas aeruginosa PAO 1; assay: Antibacterial activity, agar-dilution MIC, organism No. 17; settings: Pseudomonas aeruginosa, PAO1; Organism No. 17, bouillon-agar; read-out: Minimum Inhibitory Concentration
Outline: as §1

[17] = test system: Proteus morganii IFO 3848; assay: Antibacterial activity, agar-dilution MIC, organism No. 18; settings: Morganella morganii, IFO3848; Organism No. 18, bouillon-agar; read-out: Minimum Inhibitory Concentration
Outline: as §1

[18] = test system: Proteus mirabilis IFO 3849; assay: Antibacterial activity, agar-dilution MIC, organism No. 19; settings: Proteus mirabilis, IFO3849; Organism No. 19, bouillon-agar; read-out: Minimum Inhibitory Concentration
Outline: as §1

Proteus vulgaris OX-19 = assay: Antibacterial activity, agar-dilution MIC, organism No. 20; settings: Proteus vulgaris, OX19; Organism No. 20, bouillon-agar; read-out: Minimum Inhibitory Concentration
Outline: as §1

Proteus vulgaris HX-19 = assay: Antibacterial activity, agar-dilution MIC, organism No. 21; settings: Proteus vulgaris, HX19; Organism No. 21, bouillon-agar; read-out: Minimum Inhibitory Concentration
Outline: as §1

[19] = test system: Proteus rettgeri IFO 3850; assay: Antibacterial activity, agar-dilution MIC, organism No. 22; settings: Providencia rettgeri, IFO3850; Organism No. 22, bouillon-agar; read-out: Minimum Inhibitory Concentration
Outline: as §1

[20] = test system: Enterobacter aerogenes ATCC 13048; assay: Antibacterial activity, agar-dilution MIC, organism No. 23; settings: Klebsiella aerogenes, ATCC13048; Organism No. 23, bouillon-agar; read-out: Minimum Inhibitory Concentration
Outline: as §1

Enterobacter cloacae 963 = assay: Antibacterial activity, agar-dilution MIC, organism No. 24; settings: Enterobacter cloacae, 963; Organism No. 24, bouillon-agar; read-out: Minimum Inhibitory Concentration
Outline: as §1

[21] = test system: Micrococcus luteus ATCC 9341; assay: Antibacterial activity, agar-dilution MIC, organism No. 25; settings: Micrococcus luteus, ATCC9341; Organism No. 25, bouillon-agar; read-out: Minimum Inhibitory Concentration
Outline: as §1

[22] = test system: Streptococcus pyogenes IFO 3340; assay: Antibacterial activity, agar-dilution MIC, organism No. 26; settings: Streptococcus pyogenes, IFO3340; Organism No. 26, bouillon-agar; read-out: Minimum Inhibitory Concentration
Outline: as §1

[23] = test system: Streptococcus faecium IFO 3826; assay: Antibacterial activity, agar-dilution MIC, organism No. 27; settings: Enterococcus faecium, IFO3826; Organism No. 27, bouillon-agar; read-out: Minimum Inhibitory Concentration
Outline: as §1

[24] = test system: Mycoplasma pneumoniae IID817; assay: Antimycoplasmal activity, MIC by phenol red colour change, organism No. 28; settings: Mycoplasma, IID817; Organism No. 28, PPLO broth + 1% glucose, 37° C.; read-out: Minimum Inhibitory Concentration (MIC)
Description: Mycoplasma pneumoniae IID817 was used as the test microorganism in a culture medium prepared by adding 1% of glucose to "PPLO broth (manufactured by Difco Co.) liquid culture medium" at 37° C. with phenol red as an indicator, thereby culturing the test microorganism.

[25] = test system: Candida albicans IAM 4905; assay: Antifungal activity, agar-dilution MIC, organism No. 29; settings: Candida albicans, IAM4905; Organism No. 29, bouillon-agar; read-out: Minimum Inhibitory Concentration
Outline: as §1

[26] = test system: Aspergillus niger IFO 6342; assay: Antifungal activity, agar-dilution MIC, organism No. 30; settings: Aspergillus niger, IFO6342; Organism No. 30, bouillon-agar; read-out: Minimum Inhibitory Concentration
Outline: as §1

SMILES	MIC [1] [µg/mL]	MIC [2] [µg/mL]	MIC [3] [µg/mL]	MIC [4] [µg/mL]	MIC [5] [µg/mL]	MIC [6] [µg/mL]	MIC [7] [µg/mL]	MIC [8] [µg/mL]	MIC (Salmonella typhi 901) [µg/mL]	MIC [9] [µg/mL]	MIC [10] [µg/mL]	MIC [11] [µg/mL]	MIC [12] [µg/mL]	MIC [13] [µg/mL]	MIC [14] [µg/mL]	MIC [15] [µg/mL]	MIC [16] [µg/mL]	MIC [17] [µg/mL]	MIC [18] [µg/mL]	MIC (Proteus vulgaris OX-19) [µg/mL]	other results
[C-]#[N+]C12CC3(/C=C/C(=O)OCC(C)C)OC3C1O2 (stereo not drawn) [compound 18]	0.39 (≈ 1.56 µM)	12.5 (≈ 50.1 µM)	3.13 (≈ 12.6 µM)	0.78 (≈ 3.13 µM)	12.5 (≈ 50.1 µM)	12.5 (≈ 50.1 µM)	1.56 (≈ 6.26 µM)	12.5 (≈ 50.1 µM)	3.13 (≈ 12.6 µM)	1.56 (≈ 6.26 µM)	0.78 (≈ 3.13 µM)	6.25 (≈ 25.1 µM)	200 (≈ 802 µM)	0.78 (≈ 3.13 µM)	> 200	200 (≈ 802 µM)	> 200	3.13 (≈ 12.6 µM)	6.25 (≈ 25.1 µM)	0.2 (≈ 0.802 µM)	MIC (Proteus vulgaris HX-19): 0.1 µg/mL (≈ 0.401 µM); MIC [19]: 100 µg/mL (≈ 401 µM); MIC [20]: > 200 µg/mL; MIC (Enterobacter cloacae 963): 200 µg/mL (≈ 802 µM); MIC [21]: 1.56 µg/mL (≈ 6.26 µM); MIC [22]: 1.56 µg/mL (≈ 6.26 µM); MIC [23]: 12.5 µg/mL (≈ 50.1 µM); MIC [24]: < 0.2 µg/mL; MIC [25]: 0.2 µg/mL (≈ 0.802 µM); MIC [26]: 0.78 µg/mL (≈ 3.13 µM)
[C-]#[N+]C12CC3(/C=C/C(=O)NC4CCCCC4)OC3C1O2 (stereo not drawn) [compound 20]	1.56 (≈ 5.69 µM)	12.5 (≈ 45.6 µM)	1.56 (≈ 5.69 µM)	6.25 (≈ 22.8 µM)	> 200	> 200	0.39 (≈ 1.42 µM)	100 (≈ 365 µM)	6.25 (≈ 22.8 µM)	6.25 (≈ 22.8 µM)	3.13 (≈ 11.4 µM)	12.5 (≈ 45.6 µM)	> 200	50 (≈ 182 µM)	> 200	> 200	> 200	0.78 (≈ 2.84 µM)	> 200	0.78 (≈ 2.84 µM)	MIC (Proteus vulgaris HX-19): 0.1 µg/mL (≈ 0.365 µM); MIC [19]: > 200 µg/mL; MIC [20]: > 200 µg/mL; MIC (Enterobacter cloacae 963): > 200 µg/mL; MIC [21]: < 0.05 µg/mL; MIC [22]: 6.25 µg/mL (≈ 22.8 µM); MIC [23]: 12.5 µg/mL (≈ 45.6 µM); MIC [24]: < 0.2 µg/mL; MIC [25]: 1.56 µg/mL (≈ 5.69 µM); MIC [26]: 6.25 µg/mL (≈ 22.8 µM)
